Each structure is given as a SMILES string.

Data on one molecule can be found in patent publication US10676436B2, “NLRX1 ligands” (Landos Biopharma, Inc., priority 2018, dated 2020).

For experiment [1], the system named is peripheral blood mononuclear cells (PBMCs) of Crohn's disease patients. The experiment is described as follows: Ex vivo treatment of PBMCs of Crohn's disease patients, flow cytometry. It counts as cell-based, human. The protocol:
Samples were obtained from male and female donors clinically categorized as having moderate to severe disease. Age and current medications were not used as exclusion criteria. Whole blood was collected into heparinized vacuum tubes. Whole blood was diluted 1:3 volumes with sterile phosphate buffered saline. LeucoSep (Greiner) were prepared by addition of Lymphocyte Separation Media followed by 15 second centrifugation at max speed. Diluted whole blood was added to LeucoSep tubes. After centrifugation (2000×g, 20 min), PBMCs were collected from the interphase by Pasteur pipette. Remaining red blood cells were lysed by hypotonic lysis and suspension was filtered through a […] cell strainer. PBMCs were washed and re-suspended in sterile cell culture media, RPMI containing 10% fetal bovine serum, 2.5% Hepes solution, 1% L-glutamine, 1% penicillin/streptomycin, 1% sodium pyruvate, and 1% essential amino acids (complete RPMI).
Target cells were incubated for 24 h in complete RPMI culture media at 37° C. Cells were incubated in the presence of NX-13 ranging in concentration from 1 nM to 100 nM. NX-13 stock solution was prepared at 100 mM in dimethyl sulfoxide (DMSO) and diluted to desired concentration in culture media. DMSO concentrations were adjusted to be equal across all doses and vehicle treatments. Six hours prior to assay, cells were stimulated with phorbol 12-myristate 13-acetate (PMA) and ionomycin to stimulate cellular activation. Cells were assayed for desired data at 24 h.
Prior to collection, cells were incubated BD GolgiStop (2 μL GolgiStop to 3 mL of total media) to allow intracellular accumulation of cytokines. Cells were live stained with extracellular (CD45, CD3, CD4, CD8, CD11b) and intracellular (FOXP3, IL-10, IL-4, IFNγ, TNFα) in a sequential manner. Data was acquired on a BD FACs Celesta and analyzed using FACSDiva. Non-viable and non-singlet cells were excluded from analysis. Data is presented as percentage of CD45+ cells or % viable, singlets.
In general terms: A flow cytometer gives signals particle by particle.

Experiment [2] deals with T1, mutated NLRX1 protein (D677A, F680A, F681A, E684A) (Homo sapiens, UniProt Q86UT6, D677A/E684A/F680A/F681A).
T1 construct: made in house; host or cells: Pichia pastoris (by 'similar methods')
T1 sequence (Q86UT6 87-975 D677A/F680A/F681A/E684A): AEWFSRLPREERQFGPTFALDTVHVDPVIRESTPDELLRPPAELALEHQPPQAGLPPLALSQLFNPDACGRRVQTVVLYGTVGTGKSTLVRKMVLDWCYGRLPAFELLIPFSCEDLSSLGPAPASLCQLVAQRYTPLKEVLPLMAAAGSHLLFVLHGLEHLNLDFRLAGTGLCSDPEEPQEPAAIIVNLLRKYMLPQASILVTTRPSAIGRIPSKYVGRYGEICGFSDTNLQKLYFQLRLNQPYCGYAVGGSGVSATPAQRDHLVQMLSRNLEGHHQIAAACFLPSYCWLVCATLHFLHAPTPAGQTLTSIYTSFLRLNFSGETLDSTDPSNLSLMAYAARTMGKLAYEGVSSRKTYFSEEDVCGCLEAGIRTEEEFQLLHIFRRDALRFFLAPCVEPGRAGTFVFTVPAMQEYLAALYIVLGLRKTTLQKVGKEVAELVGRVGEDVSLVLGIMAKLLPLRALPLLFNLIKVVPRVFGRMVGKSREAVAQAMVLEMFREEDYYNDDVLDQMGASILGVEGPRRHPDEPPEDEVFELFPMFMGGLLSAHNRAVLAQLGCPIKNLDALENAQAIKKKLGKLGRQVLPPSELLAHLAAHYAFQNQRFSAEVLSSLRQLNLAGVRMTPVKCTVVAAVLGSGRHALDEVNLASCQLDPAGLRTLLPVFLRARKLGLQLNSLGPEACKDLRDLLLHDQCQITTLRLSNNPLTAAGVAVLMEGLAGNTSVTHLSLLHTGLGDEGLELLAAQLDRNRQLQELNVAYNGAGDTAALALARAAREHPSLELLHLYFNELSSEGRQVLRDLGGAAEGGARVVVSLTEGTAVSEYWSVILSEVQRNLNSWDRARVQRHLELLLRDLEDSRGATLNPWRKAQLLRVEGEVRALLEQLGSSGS
The experiment is described as follows: Surface plasmon resonance binding to NLRX1-Mutant. As for the experimental part:
NLRX1 production and purification. Human NLRX1 (www.uniprot.org; UniProtKB—Q86UT6 (NLRX1 HUMAN)) was cloned into E. coli, amplified and transfected in Pichia pastoris. P. pastoris was plated onto adenine selective media. Stable transfected colonies were selected and grown within YPD broth at 30° C. for 24 hours, 240 RPM shaking. Starter culture was used to inoculate base media (1% yeast extract, 2% peptone, 1% sorbitol, 2% yeast nitrogen base) containing biotin and buffered with potassium phosphate. Inoculated base media was incubated for 48 hours at 30° C., 240 RPM. P. pastoris was then pelleted by centrifugation and resuspended in expression media (1% sorbitol, 2% yeast nitrogen base) containing biotin and buffered with potassium phosphate. Culture was induced daily for protein production through addition of methanol and incubated for a total of 4 days at 28° C., 240 RPM. After incubation, cells were pelleted by centrifugation and lysed by sonication. Recombinant NLRX1 protein was purified by fast protein liquid chromatography (AktaPrime) using immobilized metal affinity chromatography. Fractions of protein were eluted in 1 mL aliquots and evaluated for NLRX1 content. A mutated NLRX1 protein was generated using similar methods to disrupt binding within the predicted binding site through altering four residues to alanine (D677A, F680A, F681A, and E684A).
A Biacore T200 was used to evaluate binding to the NLRX1 protein. NLRX1-WT and NLRX1-Mutant were used as proteins to immobilize onto the CM5 sensor chip. NLRX1-WT was diluted in 10 mM sodium acetate buffer at pH 4.0 and immobilized onto the flow cell to a level of ˜3700 RU, using standard amine coupling chemistry. NLRX1-Mutant was diluted in 10 mM sodium acetate buffer at pH 4.0 and immobilized onto the flow cell to a level of ˜3100 RU, using standard amine coupling chemistry. 20 mM MOPS, 150 mM NaCl, 5 mM sodium acetate, 1 mM EDTA, 0.05% Tween-20, pH 8.0 buffer (Running buffer) was used as the immobilization running buffer. Based on the immobilized response values, theoretical Rmax values were calculated. […]
(In general: In SPR one partner is held on a chip, and binding of the other changes the refractive index at the surface.)

The subject of another experiment is DSS model of colitis. The experiment can be described thus: DSS model of colitis (acute model of IBD). It counts as in vivo, mice. As for the experimental part: Mice were given 8% (w/v) DSS in drinking water for seven days to induce disruption of the epithelial layer. At project initiation, mice were 8 weeks of age and began dosing 24 hours after being placed on 8% DSS. Mice were weighed and scored daily for symptoms of disease (diarrhea, rectal bleeding, rectal inflammation, overall behavior). Treatment administration. NX-13 was prepared within a 0.5% methylcellulose (12-15 cP) solution. Dosage used was 20 mg/kg delivered once daily. Mice were weighed on a weekly basis to update dosage formulation. Dosage was calculated based off mean body weights for each gender. Oral dosage was delivered by orogastric gavage of dosage in 0.2 mL volume. Colons were collected into RPMI/FBS buffer containing collagenase (300 U/mL) and DNase (50 U/mL) for digestion. Tissues were digested for 60 minutes under stirring at 37° C. Resultant cellular suspensions were filtered through 100 μm strainers, centrifuged (300×g, 8 min), and washed in fresh RPMI. Following filtration of the resulting single cell suspensions, immune cells were purified by Percoll gradient of cell-containing 40% Percoll overlayed onto 70% Percoll solution. After centrifugation, interphase was collected and washed to obtain enriched colonic lamina propria cell fractions. Cells were labeled with mixtures of extracellular (CD45, CD3, CD4, CD8, CD19, NK1.1, CD25, F4/80, CD11b, Gr1, CX3CR1, CD64) and intracellular (Tbet, RORγT, FOXP3, IFNγ, IL17, IL10) antibodies in a sequential live staining in 96-well plates. Data was acquired using a FACS Celesta flow cytometer with FACSDiva software. Total RNA from colon and cells was generated using the Qiagen RNeasy mini kit. cDNA was generated using the BioRad iScript cDNA synthesis kit. Standard curves were generated by serial dilution of purified product from a standard PCR reaction with Taq DNA polymerase followed by purification using the Qiagen MinElute PCR purification kit. Expression levels were obtained from quantitative real-time PCR with SybrGreen supermix on a BioRad CFX96 Thermal cycler followed by normalization to expression of β-actin.

Where [3] appears, read: PBMCs from Crohn's disease patients.
Setting [4] is: day 7 of DSS challenge, qRT-PCR, normalized to beta-actin.
Setting [5] is: oral 20 mg/kg, day 7 of DSS challenge, flow cytometry.

Consider `Cc1cccc(Oc2cc(Oc3cccc(C)n3)cc(Oc3cccc(C)n3)c2)n1` [NX-13, 1,3,5-tris (6-methylpyridin-2-yloxy) benzene], for which, in experiment [1], the “concentrations at which IFNγ+ cells decreased” value is given as “above 50 nM” and the “concentrations at which IL10+ CD4+ T cells increased” value is listed as ≥ 50 nM. In experiment [1] (setting [3]), the “IFNγ+ cells” value is on record as “Dose dependent decreases”, the “IL-4 producing CD4+ T cells” value is listed as “potently decreased”, the “TNFα producing CD4+ T cells” value was “potently decreased” and the “percentage of IL10+ CD4+ T cells” value is recorded as “increased”. In experiment [1] (as low as), the “concentrations at which IL-4 producing CD4+ T cells decreased” value is given as ≥ 10 nM and the “concentrations at which TNFα producing CD4+ T cells decreased” value is ≥ 10 nM. Further, in experiment [2], the “binding to the mutated NLRX1 protein” value was “Loss of binding”. Moreover, in the experiment with DSS model of colitis (setting [4]), the “expression of Ifng in the whole colon” value is “reduced” and the “expression of Tnfa in the whole colon” value was “reduced”. Also, in the experiment on DSS model of colitis (oral 20 mg/kg once daily, day 6), the “maximal observed reduction of disease activity” value amounted to 50%. The “number of FOXP3+ regulatory CD4+ T cells” value in the experiment on DSS model of colitis (oral 20 mg/kg, colon) is reported as “did not reduce”. In addition, in the experiment with DSS model of colitis (setting [5]), the “reduction of Th1 cells in the colonic lamina propria” value is on record as “more than 50%” and the “reduction of neutrophils in the colonic lamina propria” value was “more than 50%”.
